From ChEMBL document CHEMBL1687784, “Frequency of spontaneous resistance to fosfomycin combined with different antibiotics in Pseudomonas aeruginosa” (2010) come the findings set out here.

Experiment [1] relates to Pseudomonas aeruginosa. Put plainly: Antimicrobial activity against Pseudomonas aeruginosa PA14 by EUCAST method. The class given is functional.
Experiment [2] relates to Pseudomonas aeruginosa. Put plainly: Antimicrobial activity against Pseudomonas aeruginosa PA14 mutS gene hypermutant by EUCAST method. The class given is functional.

≈ marks a conversion by molar mass, not a printed value.

Turning to `NCC[C@H](O)C(=O)N[C@@H]1C[C@H](N)[C@@H](O[C@H]2O[C@H](CN)[C@@H](O)[C@H](O)[C@H]2O)[C@H](O)[C@H]1O[C@H]1O[C@H](CO)[C@@H](O)[C@H](N)[C@H]1O` [AMIKACIN], the MIC with Pseudomonas aeruginosa [1] and in the experiment with Pseudomonas aeruginosa [2] was 1 µg/mL (≈ 1.71 µM) in each case.
Take `CC(C)(O/N=C(\C(=O)N[C@@H]1C(=O)N2C(C(=O)[O-])=C(C[n+]3ccccc3)CS[C@H]12)c1csc(N)n1)C(=O)O` [CEFTAZIDIME]: the MIC against Pseudomonas aeruginosa [1] and in the experiment with Pseudomonas aeruginosa [2] was 1 µg/mL (≈ 1.83 µM) throughout.
On to `O=C(O)c1cn(C2CC2)c2cc(N3CCNCC3)c(F)cc2c1=O` [CIPROFLOXACIN], for which the MIC in the experiment on Pseudomonas aeruginosa [1] and with Pseudomonas aeruginosa [2] was 0.1 µg/mL (≈ 0.302 µM) each time.
As for `C[C@@H]1O[C@@H]1P(=O)(O)O` [FOSFOMYCIN], the MIC with Pseudomonas aeruginosa [1] and in the experiment on Pseudomonas aeruginosa [2] was 8 µg/mL (≈ 57.9 µM) in each case.
Take `C[C@@H](O)[C@H]1C(=O)N2C(C(=O)O)=C(SCCNC=N)C[C@H]12` [IMIPENEM ANHYDROUS]: the MIC with Pseudomonas aeruginosa [1] and with Pseudomonas aeruginosa [2] was 0.5 µg/mL (≈ 1.67 µM) each time.
In the case of `C[C@@H](O)[C@H]1C(=O)N2C(C(=O)O)=C(S[C@@H]3CN[C@H](C(=O)N(C)C)C3)[C@H](C)[C@H]12` [MEROPENEM], the MIC against Pseudomonas aeruginosa [1] and against Pseudomonas aeruginosa [2] was 0.25 µg/mL (≈ 0.652 µM) each time.
`NC[C@H]1O[C@H](O[C@H]2[C@H](O)[C@@H](O[C@H]3O[C@H](CO)[C@@H](O)[C@H](N)[C@H]3O)[C@H](N)C[C@@H]2N)[C@H](N)C[C@@H]1O` [TOBRAMYCIN]: the MIC against Pseudomonas aeruginosa [1] and in the experiment on Pseudomonas aeruginosa [2] was 1 µg/mL (≈ 2.14 µM) each time.
On to COLISTIN, for which the MIC against Pseudomonas aeruginosa [1] and in the experiment with Pseudomonas aeruginosa [2] was 0.5 µg/mL in each case.

The MIC is the least concentration at which growth counts as inhibited. The low end stands for greater potency, the high end for weaker potency.
